As usually defined, the MIC90 is an inhibitory concentration at the 90% level, which refers to growth in some studies and to a panel of isolates in others. The term CC50 denotes the concentration giving 50% cytotoxicity. The MIC is the least concentration at which growth counts as inhibited.

We go through six molecules from ChEMBL document CHEMBL4400520, “Benzofuran-isatin-imine hybrids tethered via different length alkyl linkers: Design, synthesis and in vitro evaluation of anti-tubercular and anti-bacterial activities as well as cytotoxicity” (Eur J Med Chem, 2019).

Values after ≈ are worked out from the molar mass of the structure shown.

One data set has as its system Citrobacter freundii. Nature of the data set: Antibacterial activity against Citrobacter freundii. Format: functional.
Data set [1] has as its system Staphylococcus aureus. The experiment in a line: Antibacterial activity against methicillin-sensitive Staphylococcus aureus. In kind it is functional.
Data set [2] deals with Staphylococcus epidermidis. Nature of the data set: Antibacterial activity against methicillin-resistant Staphylococcus epidermidis. In kind it is functional.
Data set [3] in a line: Cytotoxicity against African green monkey Vero cells assessed as reduction in cell viability after 72 hrs by MTT assay. The note with it: chlorocebus sabaeus, Vero cells. Format: cell-based.
Another data set relates to Enterococcus faecalis. The experiment in a line: Antibacterial activity against Enterococcus faecalis. Format: functional.
A further data set has as its system Klebsiella aerogenes. Nature of the data set: Antibacterial activity against Enterobacter aerogenes. In kind it is functional.
In another data set the test system is Proteus mirabilis. The experiment in a line: Antibacterial activity against Proteus mirabilis. In kind it is functional.
Another data set has as its system Escherichia coli. Nature of the data set: Antibacterial activity against Escherichia coli. Format: functional.
The subject of the next data set is Enterobacter cloacae. Nature of the data set: Antibacterial activity against Enterobacter cloacae. In kind it is functional.
Data set [4] deals with Acinetobacter calcoaceticus. Nature of the data set: Antibacterial activity against Acinetobacter calcoaceticus. Format: functional.
For a further data set, the system named is Klebsiella pneumoniae. Nature of the data set: Antibacterial activity against Klebsiella pneumoniae. Format: functional.
Another data set has as its system Pseudomonas aeruginosa. The experiment in a line: Antibacterial activity against Pseudomonas aeruginosa ATCC 27853. In kind it is functional.
The next data set relates to Enterococcus faecium. Nature of the data set: Antibacterial activity against Enterococcus faecium. Format: functional.
The test system of data set [5] is Staphylococcus aureus. Nature of the data set: Antibacterial activity against methicillin-resistant Staphylococcus aureus. In kind it is functional.
The test system of data set [6] is Mycobacterium tuberculosis. Nature of the data set: Antitubercular activity against Mycobacterium tuberculosis H37Rv. In kind it is functional.
A short description of data set [7]: Selectivity index, ratio of CC50 for African green monkey Vero cells to MIC for Mycobacterium tuberculosis H37Rv. Format: toxicity. The note with it: read-out: Selectivity Index.
Data set [8] concerns Staphylococcus epidermidis. Nature of the data set: Antibacterial activity against methicillin-sensitive Staphylococcus epidermidis. Format: functional.

Regarding `CCOC(=O)c1c(-c2ccc(OC)cc2)oc2ccc(OCCCN3C(=O)/C(=N\OC)c4ccccc43)cc12`, the MIC90 against Citrobacter freundii amounted to 1 µg/mL (≈ 1.89 µM); against Staphylococcus aureus [1], 4 µg/mL (≈ 7.57 µM); in data set [2] it was 1 µg/mL (≈ 1.89 µM); in the data set with Enterococcus faecalis, 4 µg/mL (≈ 7.57 µM); with Klebsiella aerogenes, 1 µg/mL (≈ 1.89 µM); with Proteus mirabilis, 0.5 µg/mL (≈ 0.946 µM). Besides, the MIC90 against Escherichia coli is 0.25 µg/mL (≈ 0.473 µM); with Enterobacter cloacae, 0.5 µg/mL (≈ 0.946 µM); in [4] it was 1 µg/mL (≈ 1.89 µM); in the data set on Klebsiella pneumoniae it was 1 µg/mL (≈ 1.89 µM); in the data set with Pseudomonas aeruginosa, 2 µg/mL (≈ 3.78 µM); in the data set with Enterococcus faecium, 32 µg/mL (≈ 60.5 µM). The MIC90 came to 4 µg/mL (≈ 7.57 µM) in the data set with Staphylococcus aureus [5] and 0.5 µg/mL (≈ 0.946 µM) in data set [8]. Also, the CC50 at 72 h in data set [3] amounted to 128 µg/mL (≈ 242 µM). Also, the MIC in data set [6] was less than 0.016 µg/mL. Also, the selectivity ratio in [7] is more than 1000.

As for `CCOC(=O)c1c(-c2ccc(F)cc2)oc2ccc(OCCCCCCN3C(=O)/C(=N\OC)c4cc(F)ccc43)cc12`, the MIC90 against Citrobacter freundii is 0.125 µg/mL (≈ 0.217 µM); with Staphylococcus aureus [1] it was 2 µg/mL (≈ 3.47 µM); in data set [2], 8 µg/mL (≈ 13.9 µM); in the data set with Enterococcus faecalis, 1 µg/mL (≈ 1.73 µM); in the data set on Klebsiella aerogenes it was 0.25 µg/mL (≈ 0.434 µM); in the data set on Proteus mirabilis it was 0.125 µg/mL (≈ 0.217 µM). The MIC90 is 0.5 µg/mL (≈ 0.867 µM) with Escherichia coli; 0.25 µg/mL (≈ 0.434 µM) in the data set with Enterobacter cloacae; 4 µg/mL (≈ 6.94 µM) in [4]; 2 µg/mL (≈ 3.47 µM) in the data set with Klebsiella pneumoniae; 2 µg/mL (≈ 3.47 µM) with Pseudomonas aeruginosa; 8 µg/mL (≈ 13.9 µM) against Enterococcus faecium. Further, the MIC90 in the data set on Staphylococcus aureus [5] came out at 1 µg/mL (≈ 1.73 µM); in data set [8], 0.25 µg/mL (≈ 0.434 µM). Also, in data set [3], the CC50 at 72 h came out at 16 µg/mL (≈ 27.7 µM). In data set [6], this molecule registered an MIC of 0.218 µg/mL (≈ 0.378 µM). In data set [7], the selectivity ratio came out at 73.

In the case of `CCO/N=C1\C(=O)N(CCCOc2ccc3oc(-c4ccc(OC)cc4)c(C(=O)OCC)c3c2)c2ccccc21`, the MIC90 stood at 2 µg/mL (≈ 3.69 µM) against Citrobacter freundii; 8 µg/mL (≈ 14.7 µM) against Staphylococcus aureus [1]; 8 µg/mL (≈ 14.7 µM) in data set [2]; 4 µg/mL (≈ 7.37 µM) against Enterococcus faecalis; 1 µg/mL (≈ 1.84 µM) against Klebsiella aerogenes; 2 µg/mL (≈ 3.69 µM) with Proteus mirabilis. For the same molecule, the MIC90 is 0.5 µg/mL (≈ 0.922 µM) against Escherichia coli; 4 µg/mL (≈ 7.37 µM) with Enterobacter cloacae; 2 µg/mL (≈ 3.69 µM) in [4]; 1 µg/mL (≈ 1.84 µM) with Klebsiella pneumoniae; 4 µg/mL (≈ 7.37 µM) in the data set on Pseudomonas aeruginosa; 16 µg/mL (≈ 29.5 µM) with Enterococcus faecium. The MIC90 against Staphylococcus aureus [5] is 4 µg/mL (≈ 7.37 µM); in [8] it was 1 µg/mL (≈ 1.84 µM). For the same molecule, the CC50 at 72 h in data set [3] came out at 16 µg/mL (≈ 29.5 µM). This molecule displayed a minimum inhibitory concentration (MIC) in [6] of less than 0.016 µg/mL. Also, in [7], the selectivity ratio is more than 8000.

As to `CCO/N=C1\C(=O)N(CCCCCCOc2ccc3oc(-c4ccc(OC)cc4)c(C(=O)OCC)c3c2)c2ccccc21`, the MIC90 stood at 1 µg/mL (≈ 1.71 µM) in the data set on Citrobacter freundii; 1 µg/mL (≈ 1.71 µM) in the data set with Staphylococcus aureus [1]; 8 µg/mL (≈ 13.7 µM) in [2]; 2 µg/mL (≈ 3.42 µM) against Enterococcus faecalis; 0.25 µg/mL (≈ 0.428 µM) in the data set on Klebsiella aerogenes; 0.25 µg/mL (≈ 0.428 µM) in the data set with Proteus mirabilis. Further, the MIC90 was 0.5 µg/mL (≈ 0.855 µM) in the data set with Escherichia coli; 0.5 µg/mL (≈ 0.855 µM) against Enterobacter cloacae; 2 µg/mL (≈ 3.42 µM) in data set [4]; 1 µg/mL (≈ 1.71 µM) with Klebsiella pneumoniae; 1 µg/mL (≈ 1.71 µM) against Pseudomonas aeruginosa; 32 µg/mL (≈ 54.7 µM) against Enterococcus faecium. For the same molecule, the MIC90 (in the data set on Staphylococcus aureus [5]; in [8]) was 1 µg/mL (≈ 1.71 µM) in each case. In addition, the CC50 at 72 h in [3] was 16 µg/mL (≈ 27.4 µM). Also, the minimal inhibitory concentration (MIC) in [6] was less than 0.016 µg/mL. Besides, in [7], the selectivity ratio was more than 1000.

For the molecule `CCO/N=C1\C(=O)N(CCCCCOc2ccc3oc(-c4ccc(OC)cc4)c(C(=O)OCC)c3c2)c2ccc(OC)cc21`, the MIC90 stood at 0.125 µg/mL (≈ 0.208 µM) with Citrobacter freundii; 1 µg/mL (≈ 1.66 µM) in the data set on Staphylococcus aureus [1]; 4 µg/mL (≈ 6.66 µM) in [2]; 1 µg/mL (≈ 1.66 µM) with Enterococcus faecalis; 0.125 µg/mL (≈ 0.208 µM) in the data set with Klebsiella aerogenes; 0.06 µg/mL (≈ 0.0999 µM) in the data set on Proteus mirabilis. For the same molecule, the MIC90 was 0.125 µg/mL (≈ 0.208 µM) with Escherichia coli; 0.06 µg/mL (≈ 0.0999 µM) against Enterobacter cloacae; 2 µg/mL (≈ 3.33 µM) in data set [4]; 2 µg/mL (≈ 3.33 µM) against Klebsiella pneumoniae; 2 µg/mL (≈ 3.33 µM) against Pseudomonas aeruginosa; 16 µg/mL (≈ 26.6 µM) against Enterococcus faecium. For the same molecule, the MIC90 (in the data set with Staphylococcus aureus [5]; in data set [8]) was 1 µg/mL (≈ 1.66 µM) throughout. For the same molecule, the CC50 at 72 h in data set [3] is 16 µg/mL (≈ 26.6 µM). Also, the MIC in [6] is 0.156 µg/mL (≈ 0.26 µM). Besides, the selectivity ratio in data set [7] was 102.

For `CCO/N=C1\C(=O)N(CCCCOc2ccc3oc(-c4ccc(OC)cc4)c(C(=O)OCC)c3c2)c2ccccc21`, the MIC90 is 2 µg/mL (≈ 3.59 µM) against Citrobacter freundii; 1 µg/mL (≈ 1.8 µM) with Staphylococcus aureus [1]; 2 µg/mL (≈ 3.59 µM) in [2]; 4 µg/mL (≈ 7.19 µM) with Enterococcus faecalis; 2 µg/mL (≈ 3.59 µM) with Klebsiella aerogenes; 2 µg/mL (≈ 3.59 µM) in the data set with Proteus mirabilis. Moreover, the MIC90 against Escherichia coli is 1 µg/mL (≈ 1.8 µM); in the data set on Enterobacter cloacae, 1 µg/mL (≈ 1.8 µM); in [4] it was 0.5 µg/mL (≈ 0.898 µM); in the data set on Klebsiella pneumoniae it was 2 µg/mL (≈ 3.59 µM); against Pseudomonas aeruginosa, 2 µg/mL (≈ 3.59 µM); against Enterococcus faecium it was 64 µg/mL (≈ 115 µM). Besides, the MIC90 was determined as 1 µg/mL (≈ 1.8 µM) against Staphylococcus aureus [5] and 0.5 µg/mL (≈ 0.898 µM) in [8]. Moreover, the half-maximal cytotoxic concentration (CC50) at 72 h in [3] was 64 µg/mL (≈ 115 µM). This molecule also displayed a minimal inhibitory concentration (MIC) in data set [6] of less than 0.016 µg/mL. Also, the selectivity ratio in data set [7] was more than 4000.
